The record followed here is patent US6638953B2, “Indole derivatives as 5-HT receptor antagonist” (SmithKline Beecham p.l.c., priority 1995, dated 2003).

Structures are written as SMILES. A value given as a limit tells only on which side of the number the result lay.

In turn, `COc1cc2c(cc1C(F)(F)F)N(C(=O)Nc1ccc(Oc3ccc(C#N)cc3)nc1)CC2` [Example 176] displayed a melting point of 188 to 189 °C.

`CSc1cc2c(cc1C(F)(F)F)N(C(=O)Nc1ccc(Sc3ccncc3)nc1)CC2` [Example 145] displayed a melting point of 214 to 216 °C.

Molecule `CSc1cc2c(cc1C(F)(F)F)N(C(=O)Nc1cccc(C(=O)CCc3ccccn3)c1)CC2` [Example 149] gave a melting point of 145 to 146 °C.

In turn, `COc1cc2c(cc1C(F)(F)F)N(C(=O)Nc1ccc(OC(F)(F)F)c(-c3cccnc3)c1)CC2` [Example 123] had a melting point of 99 to 100 °C.

The molecule `O=C(Nc1cc(F)cc(-c2cncnc2)c1)N1CCc2cc(Cl)c(Cl)cc21` [Example 170] displayed a melting point of 260 °C.

Regarding `COc1cc2c(cc1C(F)(F)F)N(C(=O)Nc1cccc(-c3cccnc3)c1OC)CC2` [Example 84], the melting point fell in the range of 196 to 197 °C.

Consider `CSc1cc2c(cc1C(F)(F)F)N(C(=O)Nc1cccc(C(=O)NCc3cccnc3)c1)CC2` [Example 148], for which the melting point lay in the range of 210 to 215 °C.

In turn, `COc1cc2c(cc1C(F)(F)F)N(C(=O)Nc1cc(-c3cccnc3)cc(-c3cccnc3)c1)CC2` [Example 114] yielded a melting point of 155 to 156 °C.

Molecule `COc1cc2c(cc1C(F)(F)F)N(C(=O)Nc1cncc(-c3ccccc3CO)c1)CC2` [Example 92] came in with a melting point of 190 to 192 °C.

Regarding `COc1cc2c(cc1C(F)(F)F)N(C(=O)Nc1cncc(-c3ccccc3C=O)c1)CC2` [Example 91], the melting point lay within 114 to 116 °C.

As for `COc1cc2c(cc1C(F)(F)F)N(C(=O)Nc1ccc(Oc3ccc(F)cc3C)nc1)CC2` [Example 159], the melting point fell in the range of 208 to 209 °C.

`COc1cc2c(cc1C(F)(F)F)N(C(=O)Nc1ccc(-c3cccnc3)cc1)CC2` [Example 4, 1-[(3-Pyridyl)-4-phenyl Carbamoyl]-5-methoxy-6-trifluoromethylindoline] came in with a melting point above 230 °C.

In turn, `COc1cc2c(cc1C(F)(F)F)N(C(=O)Nc1cccc(-c3cnccn3)c1)CC2` [Example 120] gave a melting point of 208 to 209 °C.

Regarding `COc1cc2c(cc1C(F)(F)F)N(C(=O)Nc1cccc(-c3ccnc(C)n3)c1)CC2` [Example 113], the melting point was above 220 °C.

In turn, `COc1cc2c(cc1C(F)(F)F)N(C(=O)Nc1ccc(Oc3cccc(C#N)c3)nc1)CC2` [Example 175] gave a melting point of 136 to 138 °C.

With `CSc1cc2c(cc1C(F)(F)F)N(C(=O)Nc1ccc(Oc3ccc(C)nc3)nc1)CC2` [Example 66, 5-Methylthio-6-trifluoromethyl-1-[6-(6-methylpyridin-3-yloxy)pyridin-3-ylcarbamoyl]indoline], the melting point lay within 206 to 208 °C.

Molecule `COc1cc2c(cc1C(F)(F)F)N(C(=O)Nc1cncc(-c3c(F)cccc3F)c1)CC2` [Example 22, 1-(5-(2,6-Difluorophenyl)-3-pyridylcarbamoyl)-5-methoxy-6-trifluoromethylindoline] returned a melting point of 217 to 219 °C.

With `CSc1cc2c(cc1C(F)(F)F)N(C(=O)Nc1ccc(Cc3ccncc3)cc1)CC2` [Example 147], the melting point lay in the range of 206 to 209 °C.

On to `COc1cc2c(cc1C(F)(F)F)N(C(=O)Nc1ccc(Oc3ccc(C)nc3C)nc1)CC2` [Example 166], for which the melting point fell in the range of 230 to 233 °C.

Take `COc1cc2c(cc1C(F)(F)F)N(C(=O)Nc1ccc(C)c(-c3cnccc3C)c1)CC2` [Example 109]: the melting point lay within 153 to 155 °C.

Take `COc1cc2c(cc1C(F)(F)F)N(C(=O)Nc1cc(-c3cccnc3)ccc1F)CC2` [Example 9, 1-[2-Fluoro-5-(3-pyridyl) Phenyl Carbamoyl]-5-methoxy-6-trifluoromethyl Indoline]: the melting point is 233 °C (dec.).

Consider `COc1cc2c(cc1C(F)(F)F)N(C(=O)Nc1cc(Cl)cc(-c3cccnc3)c1)CC2` [Example 106], for which the melting point was in the range of 183 to 185 °C.

`COc1cccc(Oc2ccc(NC(=O)N3CCc4cc(OC)c(C(F)(F)F)cc43)cn2)c1` [Example 158]: the melting point was 188 to 189 °C.

As for `CSc1cc2c(cc1C(F)(F)F)N(C(=O)Nc1ccc(-c3cncc(Cl)c3)nc1)CC2` [Example 142], the melting point was in the range of 193 to 195 °C.

Regarding `COc1cc2c(cc1C(F)(F)F)N(C(=O)Nc1ccc(SCc3ccncc3)cc1)CC2` [Example 62, 5-Methoxy-6-trifluoromethyl-1-[4-(pyridin-4-ylmethylthio)phenyl Carbamoyl]indoline], the melting point lay in the range of 160 to 163 °C.

Molecule `O=C(Nc1ccc(F)c(-c2cccnc2)c1)N1CCc2cc(Cl)c(Cl)cc21` [Example 135] had a melting point of 200 to 202 °C.

The molecule `COc1cc2c(cc1C(F)(F)F)N(C(=O)Nc1cccc(-c3ccc(CN(C)C)cc3)c1)CC2` [Example 98] showed a melting point of 209 to 211 °C.

Molecule `COc1cc2c(cc1C(F)(F)F)N(C(=O)Nc1cncc(-c3cccs3)c1)CC2` [Example 15, 1-[5-(2-Thienyl)-pyrid-3-yl Carbamoyl]-5-methoxy-6-trifluoromethyl Indoline] displayed a melting point of 193 to 208 °C.

For `COc1cc2c(cc1C(F)(F)F)N(C(=O)Nc1cccc(-c3cncc4ccccc34)c1)CC2` [Example 34, 1-[3-(4-Isoquinolyl)phenylcarbamoyl]-5-methoxy-6-trifluoromethyl Indoline], the melting point is 211 to 215 °C.

`COc1cc2c(cc1C(F)(F)F)N(C(=O)Nc1cccc(-c3ccc(C)nn3)c1)CC2` [Example 121] displayed a melting point of 229 to 231 °C.

Consider `COc1cc2c(cc1C(F)(F)F)N(C(=O)Nc1ccc(Oc3ccccc3C)nc1)CC2` [Example 157], for which the melting point lay within 226 to 228 °C.

In turn, `CSc1cc2c(cc1C(F)(F)F)N(C(=O)Nc1cnc(-c3cccnc3)c(Cl)c1)CC2` [Example 141] returned a melting point of 245 to 250 °C.

Turning to `COc1cc2c(cc1C(F)(F)F)N(C(=O)Nc1cc(F)c(C)c(-c3cccnc3)c1)CC2` [Example 124], the melting point lay in the range of 244 to 247 °C.

Molecule `COc1cc2c(cc1C(F)(F)F)N(C(=O)Nc1cc(F)cc(-c3cnc(C)cc3C)c1)CC2` [Example 127] had a melting point of 215 to 218 °C.

Molecule `COc1cc2c(cc1C(F)(F)F)N(C(=O)Nc1cccc(-c3noc(C)n3)c1)CC2` [Example 27, 5-Methoxy-1-(5-methyl-(1,2-4-oxadiazol-3-yl)-phenylcarbamoyl)-6-trifluoromethyl Indoline] yielded a melting point of 203 to 204 °C.

On to `Cc1cc2c(cc1Cl)N(C(=O)Nc1ccc(C)c(-c3cccnc3)c1)CC2` [Example 23, 6-Chloro-5-methyl-1-(4-methyl-3-(pyrid-3-yl)-phenylcarbamoyl) Indoline], for which the melting point lay within 202 to 203 °C.

`O=C(Nc1cc(F)cc(-c2cncnc2)c1)N1CCc2cc(Br)c(C(F)(F)F)cc21` [Example 172] returned a melting point of 214 to 218 °C.

As to `COc1cc2c(cc1C(F)(F)F)N(C(=O)Nc1cncc(-c3ccccc3C)c1)CC2` [Example 90], the melting point lay in the range of 103 to 105 °C.

Take `COc1cc2c(cc1C(F)(F)F)N(C(=O)Nc1cc(F)cc(-c3cccnc3C)c1)CC2` [Example 125]: the melting point was 204 to 205 °C.

On to `CSc1cc2c(cc1C(F)(F)F)N(C(=O)Nc1cccc(C(O)CCc3ccccn3)c1)CC2` (stereo not shown) [Example 150], for which the melting point was 78 to 80 °C.

Molecule `O=C(Nc1ccc(F)c(-c2cccnc2)c1)N1CCc2cc(Br)c(C(F)(F)F)cc21` [Example 174] registered a melting point of 200 to 201 °C.

Molecule `Cc1ncccc1Oc1ccc(NC(=O)N2CCc3cc(Cl)c(Cl)cc32)cn1` [Example 168] came in with a melting point of 225 to 228 °C.

`COc1cc2c(cc1C(F)(F)F)N(C(=O)Nc1cc(Br)c(C)c(-c3cccnc3)c1)CC2` [Example 33, 1-[3-Bromo-4-methyl-5-(3-pyridyl)phenylcarbamoyl]-5-methoxy-6-trifluoromethylindoline]: the melting point lay in the range of 216 to 218 °C.

As to `COc1cc2c(cc1C(F)(F)F)N(C(=O)Nc1cc(-c3cccnc3)cc(C(F)(F)F)c1)CC2` [Example 105], the melting point is 220 to 222 °C.

On to `Cc1cc2c(cc1C(F)(F)F)N(C(=O)Nc1cccc(-c3cccnc3)c1)CC2` [Example 103], for which the melting point is 208 to 210 °C.

As for `Cc1cc2c(cc1Cl)N(C(=O)Nc1ccc(F)c(-c3cccnc3)c1)CC2` [Example 136], the melting point lay within 185 to 186 °C.

In the case of `COc1cc2c(cc1C(F)(F)F)N(C(=O)Nc1ccc(Oc3cccnc3)cc1)CC2` [Example 143], the melting point was 193 to 194 °C.

Take `CSc1cc2c(cc1C(F)(F)F)N(C(=O)Nc1ccc(Sc3cccnc3)nc1)CC2` [Example 144]: the melting point lay in the range of 204 to 206 °C.

`COc1cc2c(cc1C(F)(F)F)N(C(=O)Nc1cc(-c3cccnc3)c(OC)c(C(F)(F)F)c1)CC2` [Example 108] gave a melting point of 180 to 181 °C.

For `COc1cc2c(cc1C(F)(F)F)N(C(=O)Nc1ccc(CSc3ccncc3)cc1)CC2` [Example 60, 5-Methoxy-6-trifluoromethyl-1-[4-(pyridin-4-ylthiomethyl)phenyl Carbamoyl]indoline], the melting point lay within 174 to 175 °C.

`COc1cc2c(cc1C(F)(F)F)N(C(=O)Nc1cc(F)cc(-c3ccc(C)nc3)c1)CC2` [Example 116]: the melting point lay in the range of 213 to 215 °C.

For the molecule `COc1cc2c(cc1C(F)(F)F)N(C(=O)Nc1cncc(-c3ccncc3)c1)CC2` [Example 18, 1-[5-(4-Pyridyl)-pyrid-3-yl Carbamoyl]-5-methoxy-6-trifluoromethyl Indoline], the melting point fell in the range of 230 to 234 °C.

Take `CSc1cc2c(cc1C(F)(F)F)N(C(=O)Nc1cncc(-c3ccccc3)c1)CC2` [Example 11, 1-(5-Phenyl Pyrid-3-yl Carbamoyl)-5-methylthio-6-trifluoromethyl Indoline]: the melting point fell in the range of 208 to 214 °C.

Take `CSc1cc2c(cc1C(F)(F)F)N(C(=O)Nc1cccc(C(=O)NCc3ccccn3)c1)CC2` [Example 154]: the melting point was in the range of 116 to 118 °C.

The molecule `COc1cc2c(cc1C(F)(F)F)N(C(=O)Nc1cncc(-c3ccc(Cl)cc3)c1)CC2` [Example 89] had a melting point of 198 to 199 °C.

Broadly, the melting point is the temperature of the solid-liquid transition.
